According to PubChem BioAssay AID1963963 (Molecular Pharmacology Branch, DTP, NCI, 2024):
pIC50: −log10 of the molar value.

Tested on: 958667-338-R-J2-PDC tumor spheroids viability
Experiment: Anticancer human tumor 958667-338-R-J2-PDC patient-derived colon adenocarcinoma cell line growth inhibition [PI3K]
Conditions: spheroids with HUVEC and MSC; for pIC50: curve of first compound; for viability, T/C: stronger effect = lower value
Outline: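 Viability of mixed-cell spheroids was determined after exposure to pairwise combinations, one partner being inavolisib, alpelisib, duvelisib or copanlisib. Highest tested concentration matched clinical Cmax where known and 10 microM where not, descending in half-log steps.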

[1] = second compound 0.00316 µM, first compound 0.0316 µM
[2] = second compound 0.00316 µM, first compound 0.1 µM
[3] = second compound 0.01 µM, first compound 0.0316 µM
[4] = second compound 0.01 µM, first compound 0.1 µM
[5] = second compound 0.0316 µM, first compound 0.0316 µM
[6] = second compound 0.0316 µM, first compound 0.1 µM
[7] = second compound 0.1 µM, first compound 0.0316 µM
[8] = second compound 0.1 µM, first compound 0.1 µM
[9] = second compound 0.316 µM, first compound 0.0316 µM
[10] = second compound 0.316 µM, first compound 0.1 µM
[11] = second compound 1 µM, first compound 0.0316 µM
[12] = second compound 1 µM, first compound 0.1 µM
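Also: spheroids exposed to compounds for seven days before readout.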

## C[C@@H](NC(=O)c1ncnc(N)c1Cl)c1ncc(C(=O)Nc2cc(C(F)(F)F)c(Cl)cn2)s1 + CC(Nc1ccc2c(c1)OCCn1cc(N3C(=O)OCC3C(F)F)nc1-2)C(N)=O
Second compound 0.00316 µM
  pIC50: < 5.00
Second compound 0.01 µM
  pIC50: < 5.00
Second compound 0.0316 µM
  pIC50: < 5.00
Second compound 0.1 µM
  pIC50: < 5.00
Second compound 0.316 µM
  pIC50: < 5.00
Second compound 1 µM
  pIC50: < 5.00
[1]
  viability, T/C: 112%
[2]
  viability, T/C: 116%
Second compound 0.00316 µM, first compound 0.316 µM
  viability, T/C: 87.5%
Second compound 0.00316 µM, first compound 1 µM
  viability, T/C: 120%
Second compound 0.00316 µM, first compound 3.16 µM
  viability, T/C: 115%
Second compound 0.00316 µM, first compound 10 µM
  viability, T/C: 103%
[3]
  viability, T/C: 118%
[4]
  viability, T/C: 131%
Second compound 0.01 µM, first compound 0.316 µM
  viability, T/C: 113%
Second compound 0.01 µM, first compound 1 µM
  viability, T/C: 111%
Second compound 0.01 µM, first compound 3.16 µM
  viability, T/C: 101%
Second compound 0.01 µM, first compound 10 µM
  viability, T/C: 102%
[5]
  viability, T/C: 90.4%
[6]
  viability, T/C: 97%
Second compound 0.0316 µM, first compound 0.316 µM
  viability, T/C: 92%
Second compound 0.0316 µM, first compound 1 µM
  viability, T/C: 96.1%
Second compound 0.0316 µM, first compound 3.16 µM
  viability, T/C: 101%
Second compound 0.0316 µM, first compound 10 µM
  viability, T/C: 108%
[7]
  viability, T/C: 88.5%
[8]
  viability, T/C: 97.4%
Second compound 0.1 µM, first compound 0.316 µM
  viability, T/C: 93.9%
Second compound 0.1 µM, first compound 1 µM
  viability, T/C: 94.2%
Second compound 0.1 µM, first compound 3.16 µM
  viability, T/C: 90.1%
Second compound 0.1 µM, first compound 10 µM
  viability, T/C: 76.2%
[9]
  viability, T/C: 67.7%
[10]
  viability, T/C: 72.4%
Second compound 0.316 µM, first compound 0.316 µM
  viability, T/C: 95.1%
Second compound 0.316 µM, first compound 1 µM
  viability, T/C: 80.8%
Second compound 0.316 µM, first compound 3.16 µM
  viability, T/C: 77.8%
Second compound 0.316 µM, first compound 10 µM
  viability, T/C: 80%
[11]
  viability, T/C: 61.2%
[12]
  viability, T/C: 59.8%
Second compound 1 µM, first compound 0.316 µM
  viability, T/C: 59.3%
Second compound 1 µM, first compound 1 µM
  viability, T/C: 64.3%
Second compound 1 µM, first compound 3.16 µM
  viability, T/C: 75.5%
Second compound 1 µM, first compound 10 µM
  viability, T/C: 58.9%

## Cn1ncnc1[C@H]1c2n[nH]c(=O)c3cc(F)cc(c23)N[C@@H]1c1ccc(F)cc1 + CC(Nc1ccc2c(c1)OCCn1cc(N3C(=O)OCC3C(F)F)nc1-2)C(N)=O
Second compound 0.00316 µM
  pIC50: < 7.00
Second compound 0.01 µM
  pIC50: < 7.00
Second compound 0.0316 µM
  pIC50: < 7.00
Second compound 0.1 µM
  pIC50: < 7.00
Second compound 0.316 µM
  pIC50: < 7.00
Second compound 1 µM
  pIC50: < 7.00
Second compound 0.00316 µM, first compound 0.000316 µM
  viability, T/C: 111%
Second compound 0.00316 µM, first compound 0.001 µM
  viability, T/C: 107%
Second compound 0.00316 µM, first compound 0.00316 µM
  viability, T/C: 105%
Second compound 0.00316 µM, first compound 0.01 µM
  viability, T/C: 101%
[1]
  viability, T/C: 112%
[2]
  viability, T/C: 95.9%
Second compound 0.01 µM, first compound 0.000316 µM
  viability, T/C: 93.8%
Second compound 0.01 µM, first compound 0.001 µM
  viability, T/C: 87.4%
Second compound 0.01 µM, first compound 0.00316 µM
  viability, T/C: 88.5%
Second compound 0.01 µM, first compound 0.01 µM
  viability, T/C: 117%
[3]
  viability, T/C: 85.7%
[4]
  viability, T/C: 114%
Second compound 0.0316 µM, first compound 0.000316 µM
  viability, T/C: 82.8%
Second compound 0.0316 µM, first compound 0.001 µM
  viability, T/C: 95.9%
Second compound 0.0316 µM, first compound 0.00316 µM
  viability, T/C: 77.7%
Second compound 0.0316 µM, first compound 0.01 µM
  viability, T/C: 89.3%
[5]
  viability, T/C: 95.2%
[6]
  viability, T/C: 81.6%
Second compound 0.1 µM, first compound 0.000316 µM
  viability, T/C: 104%
Second compound 0.1 µM, first compound 0.001 µM
  viability, T/C: 82.4%
Second compound 0.1 µM, first compound 0.00316 µM
  viability, T/C: 82.4%
Second compound 0.1 µM, first compound 0.01 µM
  viability, T/C: 80.8%
[7]
  viability, T/C: 88.4%
[8]
  viability, T/C: 74.7%
Second compound 0.316 µM, first compound 0.000316 µM
  viability, T/C: 68.3%
Second compound 0.316 µM, first compound 0.001 µM
  viability, T/C: 65.2%
Second compound 0.316 µM, first compound 0.00316 µM
  viability, T/C: 75.5%
Second compound 0.316 µM, first compound 0.01 µM
  viability, T/C: 59.7%
[9]
  viability, T/C: 60.6%
[10]
  viability, T/C: 68.4%
Second compound 1 µM, first compound 0.000316 µM
  viability, T/C: 65.7%
Second compound 1 µM, first compound 0.001 µM
  viability, T/C: 50.8%
Second compound 1 µM, first compound 0.00316 µM
  viability, T/C: 61.6%
Second compound 1 µM, first compound 0.01 µM
  viability, T/C: 62.7%
[11]
  viability, T/C: 68.8%
[12]
  viability, T/C: 55.7%
